Source: PMC6225165, “Design and Synthesis of Novel Dehydroepiandrosterone Analogues as Potent Antiproliferative Agents” (Molecules : A Journal of Synthetic Chemistry and Natural …, 2018)
Where two headings read alike, the source gives them in different places.

Legend:
HepG-2 cells [1] = test: Cell cycle analysis by flow cytometry (PI); format: cell-based, human; conditions: 48 h, control 11.47%
Method: HepG-2 cells were plated in […] (5.0 × 10^5 cells per well) and incubated at 37 °C for 12 h. Exponentially growing cells were then incubated with compound 2n at different concentrations (5, 10 and 20 μM). After 48 h, untreated cells (control) or cells treated with compound 2n were centrifuged at 1000 rpm (177 g) for 10 min, and then fixed in 70% ethanol at −20 °C for at least 24 h. The cells were subsequently resuspended in phosphate-buffered saline (PBS) containing 0.1mg mL^−1 RNase A and 5 μg·mL^−1 propidium iodide (PI). The cellular DNA content for the cell cycle distribution analysis was measured by flow cytometry using a FACS Calibur flow cytometer with Cell Quest software (Becton-Dickinson, Franklin Lakes, NJ, USA), plotting at least 30,000 events per sample. The percentage of cells in the G1, S and G2 phases of the cell cycle were determined using the ModFit LT V4.0 software package (Verity Software, Topsham, ME, USA).

[2] = test system: human normal liver (L02) cells; test: MTT assay on normal cell line L02; format: cell-based
A549 [3] = test: MTT antiproliferative assay, A549; format: cell-based, human; conditions: Homo sapiens, A549, 48 h, MTT
In short: (§1)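 MTT read-out: absorbance at 492 nm after 4 h MTT (2 mg·mL^−1 final) and DMSO solubilisation. Cells (9 × 10^3/well) had 24 h adherence and 48 h compound exposure at 1, 10, 50, 100 μM. Percent inhibition was blank-corrected versus untreated control, and IC50 was calculated from these values.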

Hela = test: MTT antiproliferative assay, Hela; format: cell-based, human; conditions: Homo sapiens, 48 h, MTT
In short: as §1

BEL7402 = test: MTT antiproliferative assay, BEL7402; format: cell-based, human; conditions: Homo sapiens, Bel-7402, 48 h, MTT
In short: as §1

MCF-7 = test: MTT antiproliferative assay, MCF-7; format: cell-based, human
In short: as §1

HepG-2 cells [4] = test: Apoptosis analysis by flow cytometry (annexin V-FITC/PI); format: cell-based, human; conditions: 48 h, control 13.65%
Method: Apoptosis was detected using an Apoptosis Detection Kit (Invitrogen, Eugene, OR, USA). In brief, cells were cultured in […] (5.0 × 10^5 cells per well) and incubated at 37 °C for 12 h. Cells with exponential growth were then incubated with compound 2n at different concentrations (5, 10 and 20 μM). Following 48 h of incubation, the cells were collected, washed twice with PBS and once with 1binding buffer, and then stained with […] of annexin V-FITC and […] of PI (5 mg·mL^−1) in 1 × binding buffer for 30 min at 20 °C in the dark. Apoptotic cells were enumerated using a FACSCalibur flow cytometer with Cell Quest software (Becton–Dickinso, Franklin Lakes, NJ, USA).

HCT116 [5] = test: MTT antiproliferative assay, HCT116; format: cell-based, human
In short: as §1

HepG-2 = test: MTT antiproliferative assay, HepG-2; format: cell-based, human
In short: as §1

A549 [6] = conditions: literature lead, Figure 1; cited from earlier work
KB = test system: KB; set-up: method as in PMID 23635011; conditions: literature lead, Figure 1; cited from earlier work
HCT116 [7] = test system: HCT116; set-up: method as in PMID 26854375; conditions: literature lead, Figure 1; cited from earlier work
AGS = conditions: literature lead, Figure 1; cited from earlier work
[8] = IC50 on normal cells (L02)/IC50 on tumour cells

SMILES: CC12CCC3C(CC=C4CC(O)CCC43C)C1C/C(=C\c1cn(-c3ccc(I)cc3)nn1)C2=O (stereo not drawn) [Compound 2n, (E)-3-hydroxy-16-((1-(4-iodophenyl)-1H-1,2,3-triazol-4-yl)methylene)-10,13-dimethyl-1,3,4,7,8,9,10,11,12,13,15,16-dodecahydro-2H-cyclopenta[a]phenanthren-17(14H)-one]
- proportion of cells in the G2 phase (HepG-2 cells [1]; HepG-2, 5.0 µM): 11.14%
- proportion of cells in the G2 phase (HepG-2 cells [1]; HepG-2, 10.0 µM): 0.41%
- proportion of cells in the G2 phase (HepG-2 cells [1]; HepG-2, 20.0 µM): 0.0%
- inhibition at 100 µM ([2]; Homo sapiens, L02, 100 μM, 48 h, MTT, normal cells, read-out: % Growth Inhibition at 100 μM L02): 34.2%
- IC50 ([2]; Homo sapiens, L02, 48 h, MTT, normal cell line): > 100 µM
- toxicity in human normal liver (L02) cells ([2]; in words): not toxic
- inhibition at 100 µM (A549 [3]; 100 μM, read-out: % Growth Inhibition at 100 μM A549): 46.8%
- IC50 (A549 [3]): > 100 µM
- IC50 (Hela; HeLa): > 100 µM
- inhibition at 100 µM (Hela; 100 μM, read-out: % Growth Inhibition at 100 μM Hela): 17.3%
- inhibition at 100 µM (BEL7402; 100 μM, read-out: % Growth Inhibition at 100 μM BEL7402): < 5%
- IC50 (BEL7402): > 100 µM
- inhibition at 100 µM (MCF-7; Homo sapiens, MCF7, 100 μM, 48 h, MTT, read-out: % Growth Inhibition at 100 μM MCF-7): 81.3%
- IC50 (MCF-7; Homo sapiens, MCF7, 48 h, MTT): 9.18 µM
- Selectivity Index MCF-7 (MCF-7; [8]): >10.89
- percentage of total apoptotic cells (right quadrants) (HepG-2 cells [4]; HepG-2, 5.0 µM): 22.24%
- percentage of total apoptotic cells (right quadrants) (HepG-2 cells [4]; HepG-2, 10.0 µM): 27.24%
- inhibition at 100 µM (HCT116 [5]; Homo sapiens, HCT-116, 100 μM, 48 h, MTT, read-out: % Growth Inhibition at 100 μM HCT116): 65.5%
- IC50 (HCT116 [5]; Homo sapiens, HCT-116, 48 h, MTT): 31 µM
- Selectivity Index HCT116 (HCT116 [5]; [8]): >3.22
- inhibition at 100 µM (HepG-2; Homo sapiens, HepG2, 100 μM, 48 h, MTT, read-out: % Growth Inhibition at 100 μM HepG-2): 83%
- IC50 (HepG-2; Homo sapiens, HepG2, 48 h, MTT): 9.1 µM
- Selectivity Index HepG-2 (HepG-2; [8]): >10.99

SMILES: COc1ccccc1-n1cc(COC(=O)C23CCC(C)C(C)C2C2=CCC4C5(C)CCC(=O)C(C)(C)C5CCC4(C)C2(C)CC3)nn1 (stereo not drawn) [Compound A]
- IC50 (A549 [6]): < 0.1 µM

SMILES: C[C@]12CC[C@H](O)CC1=CCC1C2CC[C@]2(C)C(=O)/C(=C/c3cccc(Cl)c3)CC12 (stereo partly drawn) [Compound D]
- IC50 (KB): 0.6 µM

SMILES: CC1CCC2(C(=O)O)CCC3(C)C(=CCC4C5(C)CC(=Cc6cc(O)ccc6O)C(=O)C(C)(C)C5CCC43C)C2C1C (stereo not drawn) [Compound C]
- IC50 (HCT116 [7]): < 0.1 µM

SMILES: O=c1ccc2cc3ccoc3c(OCc3cn(-c4ccc(C(F)(F)F)cc4)nn3)c2o1 [Compound B]
- IC50 (AGS): 7.5 µM
